Experimental data taken from patent US10821100B2, “Triazolone compounds as mPGES-1 inhibitors” (Glenmark Pharmaceuticals S.A., priority 2012, dated 2020).

Target: T1, Recombinant human mPGES-1 (Homo sapiens, UniProt O14684)
T1 construct: made in house; host or cells: CHO cells (crude microsomal fractions)
T1 sequence (O14684 1-152): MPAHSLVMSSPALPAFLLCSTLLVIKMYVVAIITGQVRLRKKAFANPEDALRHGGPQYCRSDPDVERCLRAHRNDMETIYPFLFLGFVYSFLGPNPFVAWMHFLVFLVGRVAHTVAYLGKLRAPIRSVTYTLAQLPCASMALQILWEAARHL
Assay: In-vitro screening of mPGES-1 inhibitors (inhibition of PGE2 formation from PGH2, HTRF detection)
Type: biochemical
Details: mPGES-1 enzyme; for inhibition at 1 µM: 1 μM test compound, read-out: Percentage inhibition at 1 μM; for inhibition at 1 µM / inhibition at 10 µM: crude microsomal fractions; for inhibition at 10 µM: 10 μM test compound, read-out: Percentage inhibition at 10 μM; for IC50: class symbols
Method in brief: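 PGH2-to-PGE2 isomerization run for 1 min with 15 μM PGH2 after 10 min compound preincubation with microsomal enzyme (40–60 μg/mL) and 2.5 mM GSH, pH buffer 0.1 M potassium phosphate with EDTA. Stannous chloride quench, HTRF PGE2 readout, IC50 fitted against uninhibited reaction.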

inhibition at 1 µM | inhibition at 10 µM | IC50 | Structure (SMILES)
92.3% | 98.9% | < 50 nM | Cc1ccc(-n2nc(-c3cc(CNC(=O)C(C)(C)C)c(F)cc3Cl)[nH]c2=O)cc1Cl [Example-135, N-(4-Chloro-5-(1-(3-chloro-4-methylphenyl)-4,5-dihydro-5-oxo-1H-1,2,4-triazol-3-yl)-2-fluorobenzyl)pivalamide]
95.1% | 94.8% | < 50 nM | CC(C)(C)C(=O)NCc1cc(-n2nc(-c3ccc(C#CC4CC4)cc3)[nH]c2=O)c(Cl)cc1F [Example-136, N-(4-Chloro-5-(3-(4-(2-cyclopropylethynyl)phenyl)-4,5-dihydro-5-oxo-1,2,4-triazol-1-yl)-2-fluorobenzyl)pivalamide]
93.4% | 93.1% | < 50 nM | CC(C)(C)C#Cc1ccc(-c2nn(-c3cc(CNC(=O)C(C)(C)C)c(F)cc3Cl)c(=O)[nH]2)cc1 [Example-137, N-(4-Chloro-2-fluoro-5-(4,5-dihydro-3-(4-(3,3-dimethylbut-1-ynyl)phenyl)-5-oxo-1,2,4-triazol-1-yl)benzyl)pivalamide]
97.6% | 97.5% | < 50 nM | CC(C)(C)C(=O)NCc1ccc(Cl)c(-n2nc(-c3ccc(C#CC4CC4)cc3)[nH]c2=O)c1 [Example-141, N-(4-Chloro-3-(3-(4-(2-cyclopropylethynyl)phenyl)-4,5-dihydro-5-oxo-1,2,4-triazol-1-yl)benzyl)pivalamide]
99.2% | 90.7% | < 50 nM | CC(C)C(=O)NCc1ccc(Cl)c(-n2nc(-c3ccc(C#CC(C)(C)C)cc3)[nH]c2=O)c1 [Example-143, N-(4-Chloro-3-(4,5-dihydro-3-(4-(3,3-dimethylbut-1-ynyl)phenyl)-5-oxo-1,2,4-triazol-1-yl)benzyl)isobutyramide]
94.2% | 98.9% | < 50 nM | CC(C)(C)C(=O)NCc1ccc(Cl)c(-n2nc(-c3ccc(C(F)(F)F)cc3)[nH]c2=O)c1 [Example-145, N-(4-Chloro-3-(3-(4-(trifluoromethyl)phenyl)-4,5-dihydro-5-oxo-1,2,4-triazol-1-yl)benzyl)pivalamide]
100% | 99.7% | < 50 nM | CC(C)(C)C(=O)NCc1ccc(Cl)c(-n2nc(-c3ccc(C(F)(F)F)c(F)c3)[nH]c2=O)c1 [Example-146, N-(4-Chloro-3-(3-(3-fluoro-4-(trifluoromethyl)phenyl)-4,5-dihydro-5-oxo-1,2,4-triazol-1-yl)benzyl)pivalamide]
98.6% | 97.6% | < 50 nM | CC(C)(C)C(=O)NCc1ccc(Cl)c(-n2nc(-c3ccc(Cl)c(C(F)(F)F)c3)[nH]c2=O)c1 [Example-147, N-(4-Chloro-3-(3-(4-chloro-3-(trifluoromethyl)phenyl)-4,5-dihydro-5-oxo-1,2,4-triazol-1-yl)benzyl)pivalamide]
98.9% | 97.8% | < 50 nM | CC(C)(C)C(=O)NCc1ccc(Cl)c(-n2nc(-c3ccc(F)c(C(F)(F)F)c3)[nH]c2=O)c1 [Example-148, N-(4-Chloro-3-(3-(4-fluoro-3-(trifluoromethyl)phenyl)-4,5-dihydro-5-oxo-1,2,4-triazol-1-yl)benzyl)pivalamide]
98.3% | 94.6% | < 50 nM | CC(C)C(=O)NCc1ccc(Cl)c(-n2nc(-c3ccc(C#CC(C)(C)C)c(F)c3)[nH]c2=O)c1 [Example-149, N-(4-Chloro-3-(3-(3-fluoro-4-(3,3-dimethylbut-1-ynyl)phenyl)-4,5-dihydro-5-oxo-1,2,4-triazol-1-yl)benzyl)isobutyramide]
98.4% | 99.5% | < 50 nM | CC(C)C(=O)NCc1ccc(Cl)c(-n2nc(-c3ccc(C#CC4CC4)c(F)c3)[nH]c2=O)c1 [Example-150, N-(4-Chloro-3-(3-(4-(2-cyclopropylethynyl)-3-fluorophenyl)-4,5-dihydro-5-oxo-1,2,4-triazol-1-yl)benzyl)isobutyramide]

Further lines, the compound ahead of its results:

Structure (SMILES) | inhibition at 1 µM | inhibition at 10 µM | IC50
CC(C)(CF)C(=O)NCc1cc(-c2nn(-c3ccc(Cl)cc3)c(=O)[nH]2)c(Cl)cc1F [Example-134, N-(4-Chloro-5-(1-(4-chlorophenyl)-4,5-dihydro-5-oxo-1H-1,2,4-triazol-3-yl)-2-fluorobenzyl)-3-fluoro-2,2-dimethylpropanamide] | 91.5% | 93.9% | < 50 nM
CC(C)(C)C(=O)NCc1ccc(Cl)c(-c2nn(-c3ccc(C(F)(F)F)nc3)c(=O)[nH]2)c1 [Example-138, N-(4-Chloro-3-(1-(6-(trifluoromethyl)pyridin-3-yl)-4,5-dihydro-5-oxo-1H-1,2,4-triazol-3-yl)benzyl)pivalamide] | 93.3% | 92.9% | < 50 nM
CC(C)(C)C(=O)NCc1ccc(Cl)c(-c2nn(-c3ccc(F)c(Cl)c3)c(=O)[nH]2)c1 [Example-139, N-(4-Chloro-3-(1-(3-chloro-4-fluorophenyl)-4,5-dihydro-5-oxo-1H-1,2,4-triazol-3-yl)benzyl)pivalamide] | 93.9% | 99.1% | < 50 nM
Cc1ccc(-n2nc(-c3cc(CNC(=O)C(C)(C)C)ccc3Cl)[nH]c2=O)cc1Cl [Example-140, N-(4-Chloro-3-(1-(3-chloro-4-methylphenyl)-4,5-dihydro-5-oxo-1H-1,2,4-triazol-3-yl)benzyl)pivalamide] | 97.4% | 98.1% | < 50 nM
CC(C)(C)C(=O)NCc1ccc(Cl)c(-c2nn(-c3cccc(C(F)(F)F)c3)c(=O)[nH]2)c1 [Example-142, N-(4-Chloro-3-(1-(3-(trifluoromethyl)phenyl)-4,5-dihydro-5-oxo-1H-1,2,4-triazol-3-yl)benzyl)pivalamide] | 97.2% | 94% | < 50 nM
CC(C)C(=O)NCc1ccc(Cl)c(-c2nn(-c3ccc(C(F)(F)F)cc3)c(=O)[nH]2)c1 [Example-144, N-(4-Chloro-3-(1-(4-(trifluoromethyl)phenyl)-4,5-dihydro-5-oxo-1H-1,2,4-triazol-3-yl)benzyl)isobutyramide] | 97.5% | 92.7% | < 50 nM
CC(C)(C)C(=O)NCc1ccc(Cl)c(-n2nc(-c3ccc(CN4CCCC4)cc3)[nH]c2=O)c1 [Example-151, N-(4-Chloro-3-(4,5-dihydro-5-oxo-3-(4-((pyrrolidin-1-yl)methyl)phenyl)-1,2,4-triazol-1-yl)benzyl)pivalamide] | 65% | 95.9% | –
CC(C)(C)C(=O)NCc1ccc(Cl)c(-n2nc(-c3ccc(COCC(F)(F)F)cc3)[nH]c2=O)c1 [Example-152, N-(3-(3-(4-((2,2,2-Trifluoroethoxy)methyl)phenyl)-4,5-dihydro-5-oxo-1,2,4-triazol-1-yl)-4-chlorobenzyl)pivalamide] | 96% | 100% | < 50 nM
CC(C)c1nnc(-c2ccc(-c3nn(-c4cc(CNC(=O)C(C)(C)C)ccc4Cl)c(=O)[nH]3)cc2)o1 [Example-153, N-(4-Chloro-3-(4,5-dihydro-3-(4-(5-isopropyl-1,3,4-oxadiazol-2-yl)phenyl)-5-oxo-1,2,4-triazol-1-yl)benzyl)pivalamide] | 93.9% | 99.7% | 50 to 100 nM
